From article PMC3317662, “Some Commonly Used Brominated Flame Retardants Cause Ca^2+-ATPase Inhibition, Beta-Amyloid Peptide Release and Apoptosis in SH-SY5Y Neuronal Cells” (PLoS ONE, 2012)

Biological target: T1, microsomal Ca2+-ATPase (SERCA)
T1 construct: native enzyme in microsomal membranes isolated from SH-SY5Y cells
Assay: Ca2+-dependent ATP hydrolysis (phosphate liberation assay) in SH-SY5Y microsomes
Assay type: biochemical

| Ki [µM] | Compound |
| --- | --- |
| 9 ± 2 | CC(C)(c1cc(Br)c(O)c(Br)c1)c1cc(Br)c(O)c(Br)c1 [Tetrabromobisphenol-A] |
| 3.5 ± 1.2 | BrC1CCC(Br)C(Br)CCC(Br)C(Br)CCC1Br (stereo not drawn) [hexabromocyclododecane] |

| Compound | Ki [µM] |
| --- | --- |
| Brc1c(Br)c(Br)c(Oc2c(Br)c(Br)c(Br)c(Br)c2Br)c(Br)c1Br [decabromodiphenyl ether] | 41 ± 7 |
